The values below come from publication PMC5355877, “The development of novel LTA4H modulators to selectively target LTB4 generation” (Scientific Reports, 2017).

Several values for one entry are separate records, joined by “and”; a condition that tells them apart may be missing. Equal values may be shown once. Entries after “also recorded” stand apart in the source; their conditions may differ. Read-outs that look alike come from different tables or passages of the source.

On the set-up of data set [1]: method as in PMID 12540402. Particulars: metabolic stability reported; cited from earlier work.
The target of data set [2] is T1, LTA4H epoxide hydrolase activity (LTB4 generation) (Mus musculus, UniProt P24527).
T1 construct: endogenous in cells; host or cells: murine bone marrow neutrophils
T1 sequence (P24527 1-611): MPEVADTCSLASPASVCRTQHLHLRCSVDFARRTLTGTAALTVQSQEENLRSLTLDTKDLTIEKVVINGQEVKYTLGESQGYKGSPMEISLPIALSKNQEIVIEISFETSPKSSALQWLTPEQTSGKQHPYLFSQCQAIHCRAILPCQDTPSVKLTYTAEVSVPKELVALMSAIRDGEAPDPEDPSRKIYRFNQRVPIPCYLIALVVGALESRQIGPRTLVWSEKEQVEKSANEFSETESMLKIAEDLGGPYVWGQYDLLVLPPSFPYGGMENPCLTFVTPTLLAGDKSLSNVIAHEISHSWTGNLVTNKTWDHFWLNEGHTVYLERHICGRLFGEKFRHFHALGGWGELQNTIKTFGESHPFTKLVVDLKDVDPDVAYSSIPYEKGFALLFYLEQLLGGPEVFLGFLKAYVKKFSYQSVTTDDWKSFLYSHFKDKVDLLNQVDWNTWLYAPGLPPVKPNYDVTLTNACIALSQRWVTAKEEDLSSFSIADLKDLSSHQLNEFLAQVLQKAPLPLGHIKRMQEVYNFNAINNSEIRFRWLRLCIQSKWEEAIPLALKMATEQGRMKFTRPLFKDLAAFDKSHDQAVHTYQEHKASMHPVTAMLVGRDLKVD
The experiment in a line: LTA4H epoxide hydrolase activity: LTB4 generation by A23187-treated murine bone marrow neutrophils (EIA). Particulars: for IC50: LTB4 generation, murine neutrophils, read-out: Epoxide Hydrolase IC50 ± SEM. It is filed as cell-based. On the procedure:
To isolate murine bone marrow neutrophils, the femur and the tibia from both hind legs were removed and freed of soft tissue attachments, and the extreme distal tip of each extremity cut off. HBSS containing 15 mM EDTA and 30 mM HEPES was forced through the bone with a syringe. After dispersing cell clumps and passage through a […] sieve (BD labware, New Jersey), red blood cells were lysed by resuspending pellets in ACK buffer (for 3 minutes at room temperature) before centrifugation (800 × g, 5 min) and washing with HBSS. The cell suspension was centrifuged (800 × g, 5 min, 4 °C) and resuspended in RPMI.
(§1) 1% DMSO was used as a control. Cells were incubated for 20 minutes at 37 °C, and the reaction was terminated by centrifugation (600 × g, 5 min, 4 °C). Supernatants were removed and stored at −80 °C for subsequent LTB4 analysis. The concentration of LTB4 generated in the epoxide hydrolase activity assay was assayed using an EIA, according to manufacturer’s directions (R&D systems, Minneapolis, MN). Test compounds were assayed in a blinded manner by an investigator during determination of effect on LTA4H epoxide hydrolase activity.

In data set [3] the target is T2, recombinant human LTA4H (aminopeptidase, PGP substrate) (Homo sapiens, UniProt P09960).
T2 construct: purchased Cayman Chemicals
T2 sequence (P09960 1-611): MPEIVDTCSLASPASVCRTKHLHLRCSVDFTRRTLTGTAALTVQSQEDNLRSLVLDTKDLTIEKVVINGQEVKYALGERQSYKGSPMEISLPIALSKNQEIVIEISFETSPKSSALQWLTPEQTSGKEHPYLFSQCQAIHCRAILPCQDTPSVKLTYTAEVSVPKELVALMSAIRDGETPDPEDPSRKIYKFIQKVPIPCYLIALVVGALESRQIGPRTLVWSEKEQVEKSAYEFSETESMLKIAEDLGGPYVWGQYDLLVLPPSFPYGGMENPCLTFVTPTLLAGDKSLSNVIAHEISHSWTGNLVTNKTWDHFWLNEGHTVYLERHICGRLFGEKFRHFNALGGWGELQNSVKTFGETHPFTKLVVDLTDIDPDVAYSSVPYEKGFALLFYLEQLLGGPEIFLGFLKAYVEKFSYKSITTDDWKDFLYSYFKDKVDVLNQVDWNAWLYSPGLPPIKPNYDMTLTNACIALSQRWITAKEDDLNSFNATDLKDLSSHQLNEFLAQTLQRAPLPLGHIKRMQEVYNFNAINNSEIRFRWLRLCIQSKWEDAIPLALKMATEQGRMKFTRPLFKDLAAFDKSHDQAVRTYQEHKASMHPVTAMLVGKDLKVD
The experiment in a line: LTA4H aminopeptidase activity: PGP degradation by recombinant human LTA4H. It counts as biochemical. On the procedure:
For peptide quantification in serum, PGP and AcPGP were measured using a MDS Sciex API-4000 spectrometer (Applied Biosystems, Foster City, CA) equipped with a Shimadzu HPLC (Columbia, MD). For peptide quantification from degradation experiments, PGP and AcPGP were measured using a Thermo Accela Pump and Autosampler coupled to a Thermo TSQ Quantum Access. […] Peak area was measured, and PGP/AcPGP peptide concentrations were calculated using a relative standard curve method as previously described.
Mouse serum (diluted 1/10 in PBS) or recombinant human LTA4H (0.1 μg/ml; Cayman Chemicals, Michigan, USA) were incubated with 0.4 mM PGP at 37 °C in 5% CO2 for varying periods of time. Concentrations of PGP remaining were subsequently quantified by ESI-LC/MS/MS (as discussed above) by comparison with PGP standards. The percentage of peptide degraded was determined relative to control samples of 0.4 mM PGP alone. PGP degradation was also assessed by measurement of free proline released and its ensuing reaction with Ninhydrin (as discussed below). Test compounds were assayed in a blinded manner by an investigator during determination of the effect on LTA4H aminopeptidase activity.
To assess free proline liberated, aliquots from PGP degradation experiments were diluted 1 in 10 in PBS (to a final volume of 250 μl). Glacial acetic acid (250 μl) was then added, followed by 250 μl of ninhydrin solution (25 mg/ml in acetic acid/6 M phosphoric acid; heated at 70 °C to dissolve). The reaction mixture was heated at 100 °C for 60 minutes, allowed to cool to room temperature and the proline containing fraction extracted with 500 μl of toluene and optical density measured at 520 nm.

The subject of the next data set is LTA4H (PGP degradation). Set-up: method as in PMID 24591641. Particulars: concentration of 100 μM; 5 μg/ml LTA4H; cited from earlier work.
In data set [4] the test system is LTB4 production by neutrophils. Further details: method as in PMID 24591641. Particulars: cited from earlier work.
A short description of data set [5]: Human plasma protein binding. It counts as in vitro ADME. The text has this:
(§2) ARM1 (4-(4-benzylphenyl)-1,3-thiazole-2-amine), compound 11 (7-hydroxy-3-(4-hydroxyphenyl)-4H-chromen-4-one) and compound 13 (7-hydroxy-3-phenyl-4H-chromen-4-one) were all purchased from VitasMLab (Kowloon, Hong Kong). […] All other compounds were custom synthesized by Peakdale Molecular as described in Supplementary Information. ADMET (absorption, distribution, metabolism, and excretion – toxicity) studies were also outsourced to Peakdale Molecular.

The nature of the next data set: logD pH7.4. It is filed as physicochemical. Particulars: pH 7.4; read-out: logDpH7.4.
Excerpt: as §2

The nature of data set [6]: Mouse plasma protein binding. It is filed as in vitro ADME.
Excerpt: as §2

The target of data set [7] is T3, LTA4H epoxide hydrolase activity (LTB4 generation) (Homo sapiens, UniProt P09960).
T3 construct: endogenous in cells; host or cells: human peripheral blood neutrophils from healthy volunteers
T3 sequence (P09960 1-611): T2 sequence (P09960 1-611)
The data set is described as follows: LTB4 generation by human blood-derived neutrophils. It counts as cell-based. The settings on record: preliminary data, blood-derived neutrophils from two distinct donors. The procedure: To isolate human neutrophils, peripheral blood was taken from healthy volunteers following informed consent and according to an approved protocol. Neutrophils were subsequently isolated using the MACSxpress™ Neutrophil Isolation Kit (Miltenyi Biotec, UK).
as §1, with “1 × 10^5 murine bone marrow-derived neutrophils or human blood-derived neutrophils (compound 9 only) in 100 μl of RPMI were treated with A23187 at a final concentration of 20 μg/ml. 1%” for “1%”

A short description of data set [8]: Human liver microsome stability. It counts as in vitro ADME. Particulars: liver microsomes.
Excerpt: as §2
(In general: Microsomes from liver hold many membrane-bound enzymes, among them those of drug oxidation.)

The nature of data set [9]: Mouse liver microsome stability. It counts as in vitro ADME. The settings on record: liver microsomes.
Excerpt: as §2

Data set [10] has as its target T4, LTA4H aminopeptidase activity (Ala-p-nitroanilide substrate) (Homo sapiens, UniProt P09960).
T4 sequence (P09960 1-611): T2 sequence (P09960 1-611)
Set-up: method as in PMID 21983441. The settings on record: read-out: AC50 for augmenting aminopeptidase activity; cited from earlier work.

In data set [11] the target is T4, LTA4H aminopeptidase activity (Ala-p-nitroanilide substrate). The data set is described as follows: LTA4H aminopeptidase activity versus Ala-p-nitroanilide substrate. It counts as biochemical. The settings on record: in our hands.
Setting [12] is: PGP degradation, recombinant LTA4H, Table 1, read-out: Aminopeptidase IC50 ± SEM.

`O=c1c(-c2ccc(O)cc2)coc2cc(O)ccc12` [Compound 11, 7-hydroxy-3-(4-hydroxyphenyl)-4H-chromen-4-one]: the t1/2 in data set [1] is 465 ± 21.6 min. Moreover, the IC50 – broadly, the point on the concentration scale where inhibition reaches its midpoint – in [2] (Table 3) is 15 ± 2.3 µM; in data set [3] (PGP degradation, Table 3, read-out: Aminopeptidase IC50 ± SEM) it was more than 100 µM.

Consider `Nc1nc(-c2ccc(Cc3ccccc3)cc2)cs1` [ARM1, 4-(4-benzylphenyl)-1,3-thiazole-2-amine, reference compound], for which the IC50 in data set [2] (Table 1) was 0.6 ± 0.0662 µM; in data set [3] (setting [12]), 9.11 µM; in data set [3] (read-out: IC50 for inhibiting PGP degradation) it was approximately 9.1 µM; in data set [4] it was 0.5 µM and ~0.5 µM. Also, in the data set with LTA4H (PGP degradation), the “inhibition of PGP degradation at 100 μM” value is reported as “no inhibition”.

Consider `COc1cc(O)cc(CCc2ccccc2O)c1` [Compound 9], for which the fraction unbound (as a rule, free concentration divided by total concentration) in [5] is 0.0225; in [6] it was 0.0213. Further, in “logD pH7.4”, the logD was 2.25 ± 0.1. Also, the IC50 in [2] (Table 2) is 0.5 ± 0.04 µM; in data set [3] (PGP degradation, Table 2, read-out: Aminopeptidase IC50 ± SEM), more than 100 µM; in data set [7] it was 2.4 µM. Moreover, in [2] (relocation of hydroxyl to R3-position, relative to compound 6), the “augmentation of LTB4 inhibitory capacity” value was 10 fold. In addition, the “inhibition of PGP degradation at 100 μM” value in data set [3] (concentration of 100 μM) is listed as “no inhibition”. The values for the microsomal CLint in [8] and in data set [9] were 59.5 µL/min/mg and 466 ± 100 µL/min/mg, respectively. The half-life came to 11.7 min in data set [8] (read-out: Human liver microsomes t1/2) and 1.5 min in data set [9] (read-out: Mouse liver microsomes t1/2).

For the compound `COc1ccc(Cc2ccccc2)cc1` [Compound 4-MDM, 4-Methoxydiphenylmethane, reference compound], the results for the IC50 in [2] (Table 1) and in data set [3] (setting [12]) were 48.9 µM and 75.2 µM, respectively. The “effect on aminopeptidase activity with physiological substrate PGP” value in data set [3] (PGP substrate) was “modest inhibition; also recorded: failed to augment PGP degradation”. For the same compound, the concentration at half-maximal activity (AC50) – broadly, the midpoint of the concentration-response curve, whichever way the signal moves – in data set [10] is 50 µM. Moreover, the “effect on aminopeptidase activity versus Ala-p-nitroanilide substrate” value in data set [11] is “did promote aminopeptidase activity”.
